This assay relates to MV4:11 human cancer cell lines. The assay can be described thus: Cellular viability / anti-proliferative activity (CellTiter-Glo). It is filed as cell-based. To be noted: MV4-11, 120 h, MV-4-11 cells, 5 day protocol, mean of minimum two replicates, read-out: GI50 on cellular proliferation of MV4:11 human cancer cell lines. The method, then: Cellular Viability of Human Tumor Cell Lines
Anti-Proliferative Activity Using MLL-Harboring Cell Lines.
MV-4-11 and K562 cells are grown in IMDM media supplemented with 10% FBS and […], Molm-13 cells are cultured in RPMI-1640 media supplemented with 10% FBS and 1% o penicillin/streptomycin. Viability assays are performed by dispensing 200 cells at 7200 cells/mL into each well of an opaque 384-well plate and adding compounds at the indicated concentrations in a final volume of 32 μL and a final concentration of DMSO of 0.3% for all samples. A certain range of compound concentrations is made through a series of 2-fold dilutions starting 30 μM at the highest, total 22 dilutions. After a set incubation period, 5 day protocol, the viability of cells in each well is assessed using the CellTiter-Glo assay (Promega), read on a 96 Microplane Luminometer (Cytation 3, BioTek). Serial dilutions of each cell type are performed in all assays to generate standard curves and the final densities of cells are determined within the dynamic range of the instrument. GI50 values are calculated based on XLfit software (IDBS, Guildford, UK) with Sigmoidal Dose-Response Model. Each compound is tested in minimum of two replicates. Data are expressed as mean.
On the technique in general: In ATP-based viability assays light output follows the ATP content of the culture.

Molecules are shown by their SMILES.

For the molecule `Cc1cc(C)nc(CN2CCOc3c(cc(Cn4ccnc4C)cc3-c3cn(C)nc3C(F)(F)F)C2=O)c1` [Example 26, 4-((4,6-Dimethylpyridin-2-yl)methyl)-7-((2-methyl-1H-imidazol-1-yl)methyl)-9-(1-methyl-3-(trifluoromethyl)-1H-pyrazol-4-yl)-3,4-dihydrobenzo[f][1,4]oxazepin-5(2H)-one], the GI50 amounted to 0.135 µM.
Then `Cc1ccnc(CN2CCOc3c(cc(Cn4ccnc4C)cc3-c3cn(C)nc3C(F)(F)F)C2=O)c1` [Example 27, 7-((2-Methyl-1H-imidazol-1-yl)methyl)-9-(1-methyl-3-(trifluoromethyl)-1H-pyrazol-4-yl)-4-((4-methylpyridin-2-yl)methyl)-3,4-dihydrobenzo[f][1,4]oxazepin-5(2H)-one], with 0.192 µM.
As for `COc1cc(CN2CC(=O)Nc3c(cc(Cn4ccnc4C)cc3-c3ccc(F)cc3C)C2=O)cc(OC)c1` [Example 28, 4-(3,5-Dimethoxybenzyl)-9-(4-fluoro-2-methylphenyl)-7-((2-methyl-1H-imidazol-1-yl)methyl)-3,4-dihydro-1H-benzo[e][1,4]diazepine-2,5-dione], the GI50 worked out at 0.232 µM.
Then `COc1cc(CN2CCNc3c(cc(Cn4ccn(C)c4=N)cc3-c3ccc(F)cc3C)C2=O)cc(OC)c1` [Example 29, 4-(3,5-Dimethoxybenzyl)-9-(4-fluoro-2-methylphenyl)-7-((2-imino-3-methyl-2,3-dihydro-1H-imidazol-1-yl)methyl)-1,2,3,4-tetrahydro-5H-benzo[e][1,4]diazepin-5-one], with 0.038 µM.
As for `COc1cc(CN2CC(=O)Nc3c(cc(Cn4ccoc4=N)cc3-c3ccc(F)cc3C)C2=O)cc(OC)c1` [Example 30, 4-(3,5-Dimethoxybenzyl)-9-(4-fluoro-2-methylphenyl)-7-((2-iminooxazol-3(2H)-yl)methyl)-3,4-dihydro-1H-benzo[e][1,4]diazepine-2,5-dione], the GI50 came out at 0.19 µM.
Then `Cc1cc(C)nc(CN2CCOc3c(cc(Cn4cnn(C)c4=N)cc3-c3cn(C)nc3C(F)(F)F)C2=O)c1` [Example 31, 4-((4,6-dimethylpyridin-2-yl)methyl)-7-((5-imino-1-methyl-1,5-dihydro-4H-1,2,4-triazol-4-yl)methyl)-9-(1-methyl-3-(trifluoromethyl)-1H-pyrazol-4-yl)-3,4-dihydrobenzo[f][1,4]oxazepin-5(2H)-one], with 0.231 µM; and `Cc1ccnc(CN2CCOc3c(cc(Cn4cnn(C)c4=N)cc3-c3cn(C)nc3C(F)(F)F)C2=O)c1` [Example 32, 7-((5-imino-1-methyl-1,5-dihydro-4H-1,2,4-triazol-4-yl)methyl)-9-(1-methyl-3-(trifluoromethyl)-1H-pyrazol-4-yl)-4-((4-methylpyridin-2-yl)methyl)-3,4-dihydrobenzo[f][1,4]oxazepin-5(2H)-one], with 0.775 µM.
Then `COc1cc(CN2C[C@@H](C)Oc3c(cc(Cn4ccn(C)c4=N)cc3-c3ccc(F)cc3C)C2=O)cc(OC)c1` [Example 33, (R)-4-(3,5-dimethoxybenzyl)-9-(4-fluoro-2-methylphenyl)-7-((2-imino-3-methyl-2,3-dihydro-1H-imidazol-1-yl)methyl)-2-methyl-3,4-dihydrobenzo[f][1,4]oxazepin-5(2H)-one], with 0.13 µM; and `COc1cc(CN2C[C@@H](C)Oc3c(cc(Cn4ccnc4C)cc3-c3ccc(F)cc3C)C2=O)cc(OC)c1` [Example 34, (R)-4-(3,5-Dimethoxybenzyl)-9-(4-fluoro-2-methylphenyl)-2-methyl-7-((2-methyl-1H-imidazol-1-yl)methyl)-3,4-dihydrobenzo[f][1,4]oxazepin-5(2H)-one], with 1.47 µM; and `COc1cc(CN2C[C@H](C)Oc3c(cc(Cn4ccn(C)c4=N)cc3-c3ccc(F)cc3C)C2=O)cc(OC)c1` [Example 35, (S)-4-(3,5-Dimethoxybenzyl)-9-(4-fluoro-2-methylphenyl)-7-((2-imino-3-methyl-2,3-dihydro-1H-imidazol-1-yl)methyl)-2-methyl-3,4-dihydrobenzo[f][1,4]oxazepin-5(2H)-one], with 0.306 µM.
On to `COc1cc(CN2C[C@H](C)Oc3c(cc(Cn4ccnc4C)cc3-c3ccc(F)cc3C)C2=O)cc(OC)c1` [Example 36, (S)-4-(3,5-Dimethoxybenzyl)-9-(4-fluoro-2-methylphenyl)-2-methyl-7-((2-methyl-1H-imidazol-1-yl)methyl)-3,4-dihydrobenzo[f][1,4]oxazepin-5(2H)-one], for which the GI50 worked out at 2.43 µM.
Then `CCc1nccn1Cc1cc2c(c(-c3cn(C)nc3C(F)(F)F)c1)OCCN(Cc1cc(C)ccn1)C2=O` [Example 37, 7-((2-Ethyl-1H-imidazol-1-yl)methyl)-9-(1-methyl-3-(trifluoromethyl)-1H-pyrazol-4-yl)-4-((4-methylpyridin-2-yl)methyl)-3,4-dihydrobenzo[f][1,4]oxazepin-5(2H)-one], with 1.08 µM; and `CCc1nccn1Cc1cc2c(c(-c3cn(C)nc3C(F)(F)F)c1)OCCN(Cc1cc(C)cc(C)n1)C2=O` [Example 38, 4-((4,6-Dimethylpyridin-2-yl)methyl)-7-((2-ethyl-1H-imidazol-1-yl)methyl)-9-(1-methyl-3-(trifluoromethyl)-1H-pyrazol-4-yl)-3,4-dihydrobenzo[f][1,4]oxazepin-5(2H)-one], with 0.262 µM; and `Cc1ccnc(CN2C[C@H](C)Oc3c(cc(Cn4ccnc4C)cc3-c3cn(C)nc3C(F)(F)F)C2=O)c1` [Example 39, (S)-2-Methyl-7-((2-methyl-1H-imidazol-1-yl)methyl)-9-(1-methyl-3-(trifluoromethyl)-1H-pyrazol-4-yl)-4-((4-methylpyridin-2-yl)methyl)-3,4-dihydrobenzo[f][1,4]oxazepin-5(2H)-one], with 0.73 µM.
With `Cc1ccnc(CN2C[C@@H](C)Oc3c(cc(Cn4ccnc4C)cc3-c3cn(C)nc3C(F)(F)F)C2=O)c1` [Example 40, (R)-2-Methyl-7-((2-methyl-1H-imidazol-1-yl)methyl)-9-(1-methyl-3-(trifluoromethyl)-1H-pyrazol-4-yl)-4-((4-methylpyridin-2-yl)methyl)-3,4-dihydrobenzo[f][1,4]oxazepin-5(2H)-one], the GI50 was 0.529 µM.
Then `Cc1cc(C)nc(CN2CCOc3c(cc(Cn4ccnc4C)cc3-c3ccc(F)cc3C)C2=O)c1` [Example 41, 4-((4,6-Dimethylpyridin-2-yl)methyl)-9-(4-fluoro-2-methylphenyl)-7-((2-methyl-1H-imidazol-1-yl)methyl)-3,4-dihydrobenzo[f][1,4]oxazepin-5(2H)-one], with 0.985 µM; and `Cc1cc(C)nc(CN2CCOc3c(cc(Cn4ccnc4C)cc3-c3cccnc3C(F)(F)F)C2=O)c1` [Example 42, 4-((4,6-Dimethylpyridin-2-yl)methyl)-7-((2-methyl-1H-imidazol-1-yl)methyl)-9-(2-(trifluoromethyl)pyridin-3-yl)-3,4-dihydrobenzo[f][1,4]oxazepin-5(2H)-one], with 0.282 µM; and `Cc1cc(C)nc(CN2CCOc3c(cc(Cn4ccnc4C)cc3-c3sc(C)nc3C)C2=O)c1` [Example 43, 4-((4,6-Dimethylpyridin-2-yl)methyl)-9-(2,4-dimethylthiazol-5-yl)-7-((2-methyl-1H-imidazol-1-yl)methyl)-3,4-dihydrobenzo[f][1,4]oxazepin-5(2H)-one], with 0.159 µM.
Then `Cc1cc(C)nc(CN2CCOc3c(cc(Cn4ccnc4C)cc3-c3cccnc3C)C2=O)c1` [Example 44, 4-((4,6-Dimethylpyridin-2-yl)methyl)-7-((2-methyl-1H-imidazol-1-yl)methyl)-9-(2-methylpyridin-3-yl)-3,4-dihydrobenzo[f][1,4]oxazepin-5(2H)-one], with 0.548 µM; and `Cc1cc(C)nc(CN2CCOc3c(cc(Cn4ccnc4C)cc3-c3ccccc3C)C2=O)c1` [Example 45, 4-((4,6-Dimethylpyridin-2-yl)methyl)-7-((2-methyl-1H-imidazol-1-yl)methyl)-9-(o-tolyl)-3,4-dihydrobenzo[f][1,4]oxazepin-5(2H)-one], with 0.157 µM; and `Cc1cc(C)nc(CN2CCOc3c(cc(Cn4ccnc4C)cc3-c3scnc3C)C2=O)c1` [Example 46, 4-((4,6-Dimethylpyridin-2-yl)methyl)-7-((2-methyl-1H-imidazol-1-yl)methyl)-9-(4-methylthiazol-5-yl)-3,4-dihydrobenzo[f][1,4]oxazepin-5(2H)-one], with 0.703 µM.
Then `COc1ccnc([C@H](C)N2CCOc3c(cc(Cn4ccnc4C)cc3-c3cn(C)nc3C(F)(F)F)C2=O)c1` [Example 47, (S)-4-(1-(4-Methoxypyridin-2-yl)ethyl)-7-((2-methyl-1H-imidazol-1-yl)methyl)-9-(1-methyl-3-(trifluoromethyl)-1H-pyrazol-4-yl)-3,4-dihydrobenzo[f][1,4]oxazepin-5(2H)-one], with 0.031 µM; and `Cc1cc(C)nc(CN2CCOc3c(cc(Cn4ccnc4C)cc3-c3ccc(F)cc3Cl)C2=O)c1` [Example 48, 9-(2-Chloro-4-fluorophenyl)-4-((4,6-dimethylpyridin-2-yl)methyl)-7-((2-methyl-1H-imidazol-1-yl)methyl)-3,4-dihydrobenzo[f][1,4]oxazepin-5(2H)-one], with 0.095 µM.
On to `Cc1cc(C)nc(CN2CCOc3c(cc(Cn4ccnc4C)cc3-c3cc(C)ccc3C)C2=O)c1` [Example 49, 9-(2,5-Dimethylphenyl)-4-((4,6-dimethylpyridin-2-yl)methyl)-7-((2-methyl-1H-imidazol-1-yl)methyl)-3,4-dihydrobenzo[f][1,4]oxazepin-5(2H)-one], for which the GI50 came out at 0.045 µM.

For the origin of these results see patent publication US12577227B2, “WDR5 inhibitors and modulators” (Vanderbilt University, priority 2019, dated 2026).
